Source: patent US20080280879A1, “SUBSTITUTED HETEROCYCLIC DERIVATIVES AND THEIR PHARMACEUTICAL USE AND COMPOSITIONS” (priority 2007, published 2008)
Converted amounts (≈) assume the structure as drawn.

Experiments:
Format in all cases: cell-based, Staphylococcus aureus
Staph aureus 2811 = assay: MIC, microtiter broth dilution (CLSI M7-A7), Assay 1, Table 12 column D, no serum; conditions: for MIC, column D: Staph aureus 2811, Assay 1, no serum; for MIC: Staphylococcus aureus, 2811, Staph aureus 2811, Assay 1, no serum
Method in brief: (§1)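 MIC read as lowest drug level giving no macroscopically visible growth, μg/ml. Method: CLSI M7-A7 microtiter broth dilution, M100-S16 interpretation. Serum arm: inoculum in Mueller-Hinton Broth + 50% pooled inactivated human serum. Multiple runs → geometric mean.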

Staph aureus 1146 [1] = assay: MIC, microtiter broth dilution (CLSI M7-A7), Assay 1, Table 12 column B, no serum; conditions: for MIC, column B: Staph aureus 1146, Assay 1, no serum; for MIC: Staphylococcus aureus, 1146, Staph aureus 1146, Assay 1, no serum
Method in brief: as §1

Staph aureus 1146 [2] = assay: MIC in Mueller-Hinton Broth with 50% pooled inactivated human serum, Assay 1, Table 12; conditions: for MIC, column C: Staph aureus 1146, Assay 1, 50% human serum; for MIC: Staphylococcus aureus, 1146, Staph aureus 1146, Assay 1, 50% human serum, read-out: MIC, column C
Method in brief: as §1

Staph aureus 2812 = assay: MIC, microtiter broth dilution (CLSI M7-A7), Assay 1, Table 12 column E, no serum; conditions: for MIC, column E: Staph aureus 2812, Assay 1, no serum; for MIC: Staphylococcus aureus, 2812, Staph aureus 2812, Assay 1, no serum
Method in brief: as §1

Staph aureus 1095 MRSA = assay: MIC, microtiter broth dilution (CLSI M7-A7), Assay 1, Table 12 column A, no serum; conditions: Assay 1, no serum; for MIC: Staphylococcus aureus, MRSA
Method in brief: as §1

SMILES | MIC, column D (Staph aureus 2811) [µg/mL] | MIC, column B (Staph aureus 1146 [1]) [µg/mL] | MIC, column C (Staph aureus 1146 [2]) | MIC, column E (Staph aureus 2812) [µg/mL] | MIC, column A (Staph aureus 1095 MRSA) [µg/mL] | MIC (Staph aureus 2811) [µg/mL] | MIC (Staph aureus 1146 [1]) [µg/mL] | MIC (Staph aureus 2812) [µg/mL] | MIC (Staph aureus 1095 MRSA) [µg/mL] | MIC (Staph aureus 1146 [2]) [µg/mL]
COc1ccc2nccc(C(O)CC[C@@H]3CCN(C4CC(O)(c5ccccc5)C4)C[C@@H]3C(=O)O)c2c1 (mixture of isomers) [Example 96, (3R,4R)-4-[3-hydroxy-3-(6-methoxyquinolin-4-yl)propyl]-1-(3-hydroxy-3-phenylcyclobutyl)piperidine-3-carboxcylic acid] | >64 | 8 | >64 µg/mL | >64 | >64 |  |  |  |  | 
COc1ccc2nccc(C(O)CC[C@@H]3CCN(C4CN(Cc5ccccn5)C4)C[C@@H]3C(=O)O)c2c1 (stereo partly drawn) [Example 127, (3R,4R)-4-(3-hydroxy-3-(6-methoxyquinolin-4-yl)propyl)-1-(1-(pyridine-2-ylmethyl)azetidin-3-yl)piperdine-3-carboxylic acid] | >64 | >64 | >64 µg/mL | >64 | >64 |  |  |  |  | 
COc1ccc2ncc(F)c(C(O)CC[C@@H]3CCN(C4CC(c5cc(F)ccc5F)C4)C[C@@H]3C(=O)O)c2c1 (single isomer, unassigned) [Example 59] |  |  | <=.0625 μg/ml |  |  | ≤ 0.0625 | ≤ 0.0625 | ≤ 0.0625 | ≤ 0.0625 | 
COc1ccc2ncc(Cl)c(CCCC3(C(=O)O)CCN(C4CC(c5c(F)cccc5F)C4)C3)c2c1 (centres unmarked) [Example 87, 3-[3-(3-chloro-6-methoxyquinolin-4-yl)propyl]-1-[3-(2,6-difluorophenyl)cyclobutyl] pyrrolidine-3-carboxylic acid] |  |  |  |  |  | ≤ 0.0625 | ≤ 0.0625 | ≤ 0.0625 | ≤ 0.0625 | 8 (≈ 15.5 µM)
COc1ccc2nccc(C(O)CC[C@@H]3CCN(C4CCC(c5ccc(Cl)cc5)C4)C[C@@H]3C(=O)O)c2c1 (stereo partly drawn) [Example 97, (3R,4R)-1-[3-(4-chlorophenyl)cyclopentyl]-4-[3-hydroxy-3-(6-methoxyquinolin-4-yl)propyl]piperidine-3-carboxylic acid] |  |  |  |  |  | 8 (≈ 15.3 µM) | 2 (≈ 3.82 µM) | 8 (≈ 15.3 µM) | 32 (≈ 61.2 µM) | > 64
COc1ccc2ccnc(CCCC3(C(=O)O)CCN(C4CC(c5ccccc5)C4)CC3)c2c1 (centres unmarked) [Example 121, 4-[3-(7-methoxyisoquinolin-1-yl)propyl]-1-(3-phenylcyclobutyl)piperidine-4-carboxylic acid] |  |  |  |  |  | 1 (≈ 2.18 µM) | 1 (≈ 2.18 µM) | 1 (≈ 2.18 µM) | 2 (≈ 4.36 µM) | > 64
COc1ccc2nccc(C(O)CC[C@@H]3CCN(C4CC(c5ccc(C(F)(F)F)cc5)C4)C[C@@H]3C(=O)O)c2c1 (stereo partly drawn) [Example 30, (3R,4R)-4-[3-hydroxy-3-(6-methoxyquinolin-4-yl)propyl]-1-{3-[4-(trifluoromethyl)phenyl]cyclobutyl} piperidine-3-carboxylic acid] |  |  |  |  |  | 4 (≈ 7.37 µM) | 8 (≈ 14.7 µM) | 8 (≈ 14.7 µM) | 4 (≈ 7.37 µM) | > 64
COc1ccc2nccc(C(O)CC[C@@H]3CCN(C4CC(c5ccccn5)C4)C[C@@H]3C(=O)O)c2c1 (stereo partly drawn) [Example 21, (3R,4R)-4-[3-hydroxy-3-(6-methoxyquinolin-4-yl)propyl]-1-(3-pyridin-2-ylcyclobutyl)piperidine-3-carboxylic acid] |  |  |  |  |  | 4 (≈ 8.41 µM) | 4 (≈ 8.41 µM) | 4 (≈ 8.41 µM) | 16 (≈ 33.6 µM) | 16 (≈ 33.6 µM)
COc1ccc2ncc(Cl)c([C@@H](O)CNC3(C(=O)O)CCCN(C4CC(c5ccccc5)C4)CC3)c2c1 (single isomer, unassigned) [Example 147] |  |  |  |  |  | 1 (≈ 1.91 µM) | 1 (≈ 1.91 µM) | 1 (≈ 1.91 µM) | 8 (≈ 15.3 µM) | 4 (≈ 7.63 µM)
COc1ccc2nccc(C(O)CC[C@@H]3CCN(C4CC(Cc5cc(F)ccc5F)C4)C[C@@H]3C(=O)O)c2c1 (stereo partly drawn) [Example 202, (3R,4R)-1-[3-(2,5-difluorobenzyl)cyclobutyl]-4-[3-hydroxy-3-(6-methoxyquinolin-4-yl)propyl]piperidine-3-carboxylic acid] |  |  |  |  |  | 2 (≈ 3.81 µM) | 2 (≈ 3.81 µM) | 4 (≈ 7.62 µM) | 8 (≈ 15.2 µM) | 64 (≈ 122 µM)
COc1ccc2ncc(F)c(CCCC3(C(=O)O)CCN(C4CC(c5c(F)cccc5F)C4)C3)c2c1 (centres unmarked) [Example 174, 1-[3-(2,6-difluorophenyl)cyclobutyl]-3-[3-(3-fluoro-6-methoxyquinolin-4-yl)propyl]pyrrolidine-3-carboxylic acid] |  |  | 4.00 µg/mL (≈ 8.02 µM) |  |  | < 0.0625 | < 0.0625 | < 0.0625 | < 0.0625 | 
COc1ccc2ncc(F)c([C@@H](O)CNC3(C(=O)O)CCCN(C4CC(c5ccccc5)C4)CC3)c2c1 (single isomer, unassigned) [Example 150] | 2 (≈ 3.94 µM) | 2 (≈ 3.94 µM) | 4 µg/mL (≈ 7.88 µM) | 2 (≈ 3.94 µM) | 4 (≈ 7.88 µM) |  |  |  |  | 
COc1ccc2nccc([C@@H](O)CC[C@@H]3CCN(C4CC(c5c(F)cccc5F)C4C)C[C@@H]3C(=O)O)c2c1 (stereo partly drawn) [Example 66, (3R,4R)-1-[(2,3)-3-(2,6-difluorophenyl)-2-methylcyclobutyl]-4-[(3S)-3-hydroxy-3-(6-methoxyquinolin-4-yl)propyl]piperidine-3-carboxylic acid] | 0.125 (≈ 0.238 µM) | 0.125 (≈ 0.238 µM) | 4 µg/mL (≈ 7.62 µM) | 0.25 (≈ 0.477 µM) | 1 (≈ 1.91 µM) |  |  |  |  | 
COc1ccc2nccc(C(O)CC[C@@H]3CCN(C4CC(c5ccc(OC)c(OC)c5)C4)C[C@@H]3C(=O)O)c2c1 (stereo partly drawn) [Example 32, (3R,4R)-1-[3-(3,4-dimethoxyphenyl)cyclobutyl]-4-[3-hydroxy-3-(6-methoxyquinolin-4-yl)propyl] piperidine-3-carboxylic acid] |  |  |  |  |  | 64 (≈ 120 µM) | > 64 | 64 (≈ 120 µM) | 64 (≈ 120 µM) | > 64
COc1ccc2ncc(Cl)c(C(O)CC[C@@H]3CCN(C4CC(c5ccccc5)C4)C[C@@H]3C(=O)O)c2c1 (stereo partly drawn) [Example 211, (3R,4R)-4-[3-(3-chloro-6-methoxyquinolin-4-yl)-3-hydroxypropyl]-1-(3-phenylcyclobutyl)piperidine-3-carboxylic acid] | <0.0625 | <0.0625 | 0.250 µg/mL (≈ 0.491 µM) | <0.0625 | <0.0625 |  |  |  |  | 
COc1ccc2nccc(C(O)CC[C@@H]3CCN(CC4CC(c5ccccc5)C4)C[C@@H]3C(=O)O)c2c1 (mixture of isomers) [Example 177, (3R,4R)-4-[3-hydroxy-3-(6-methoxyquinolin-4-yl)propyl]-1-[(3-phenylcyclobutyl)methyl]piperidine-3-carboxylic acid] |  |  |  |  |  | 4 | 4 | 8 | 8 | 32
COc1ccc2ncc(Cl)c(CCNC3(C(=O)O)CCCN(C4CC(c5cccc(C(F)(F)F)c5)C4)CC3)c2c1 (centres unmarked) [Example 157, 4-{[2-(3-chloro-6-methoxyquinolin-4-yl)ethyl]amino}-1-{3-[3-(trifluoromethyl)phenyl]cyclobutyl}azepane-4-carboxylic acid] |  |  |  |  |  | 1 (≈ 1.74 µM) | 1 (≈ 1.74 µM) | 0.5 (≈ 0.868 µM) | 4 (≈ 6.94 µM) | > 33
COc1ccc2nccc([C@@H](O)CC[C@@H]3CCN(C4CC(c5ccccc5)C4)C[C@@H]3c3nn[nH]n3)c2c1 (stereo partly drawn) [Example 224, (S)-1-(6-methoxyquinolin-4-yl)-3-((3R,4R)-1-(3-phenylcyclobutyl)-3-(2H-tetrazol-5-yl)piperidin-4-yl)propan-1-ol] |  |  |  |  |  | 0.25 (≈ 0.501 µM) | 0.25 (≈ 0.501 µM) | 0.5 (≈ 1 µM) | 2 (≈ 4.01 µM) | 8 (≈ 16 µM)
COc1ccc2ncc(F)c(C(O)CC[C@@H]3CCN(C4CC(c5cc(F)ccc5F)C4)C[C@@H]3C(=O)O)c2n1 (stereo partly drawn) [Example 205, (3R,4R)-1-[3-(2,5-difluorophenyl)cyclobutyl]-4-[3-(3-fluoro-6-methoxy-1,5-naphthyridin-4-yl)-3-hydroxypropyl]piperidine-3-carboxylic acid] |  |  |  |  |  | < 0.0625 | < 0.0625 | < 0.0625 | < 0.0625 | 2 (≈ 3.78 µM)
COc1ccc2nccc([C@@H](O)CC[C@@H]3CCN(C4CC(c5cc(F)ccc5F)C4)C[C@@H]3C(=O)O)c2c1 (stereo partly drawn) [Example 40, (3R,4R)-1-[3-(2,5-difluorophenyl)cyclobutyl]-4-[(3S)-3-hydroxy-3-(6-methoxyquinolin-4-yl)propyl] piperidine-3-carboxylic acid] |  |  |  |  |  | ≤ 0.0625 | ≤ 0.0625 | ≤ 0.0625 | 0.125 (≈ 0.245 µM) | 1.26 (≈ 2.47 µM)
COc1ccc2nccc(C(O)CC[C@@H]3CCN(C4CN(C5CCOC5)C4)C[C@@H]3C(=O)O)c2c1 (stereo partly drawn) [Example 129, (3R,4R)-4-[3-hydroxy-3-(6-methoxyquinolin-4-yl)propyl]-1-[1-(tetrahydrofuran-3-yl)azetidin-3-yl] piperidine-3-carboxylic acid] |  |  |  |  |  | > 64 | > 64 | > 64 | > 64 | > 64
COc1ccc2nccc(C(O)CC[C@@H]3CCN(C4CC(c5nc(C6CCC6)no5)C4)C[C@@H]3C(=O)O)c2c1 (stereo partly drawn) [Example 163, (3R,4R)-1-[3-(3-cyclobutyl-1,2,4-oxadiazol-5-yl)cyclobutyl]-4-[3-hydroxy-3-(6-methoxyquinolin-4-yl)propyl]piperidine-3-carboxylic acid] |  |  |  |  |  | > 64 | 64 (≈ 123 µM) | > 64 | > 64 | > 64
